PMC11387234, “Identification of novel inhibitors of the transcriptional coactivator MRTF-A for HCC therapy” (Molecular Therapy Oncology, 2024)

Columns and labels:
HuH7 cells [1] = test: SA-β-Gal staining (cellular senescence) in HuH7 cells; type: cell-based; settings: for Concentration that significantly increases SA-β-Gal-positive cells (senescence induction): HuH7 cells
Procedure: (§1) Cellular senescence of treated cells was determined using the Senescence-β-galactosidase staining kit according to the manufacturer’s instructions (Cell Signaling Technology, Danvers, MA, USA). 300 cells were counted. The ratio stained to unstained cells were used to calculate the percentage of SA-β-gal-positive cells.

SRF = SRF reporter gene (5×SRE-luciferase) assay; type: cell-based; settings: HuH7 cells, 24 h; for Reduction in SRF activity: 5 μM; for SRF activity (5×SRE-luciferase): 30 μM
Procedure: HuH7 cells were seeded in a 12-well plate and transiently transfected with 0.25 μg 5×SRE and 0.15 μg Renilla luciferase simian virus 40 (SV40) promoter reporter as an internal control. The next day, cells were treated with inhibitors, as indicated in the figure legends, and the Dual-Luciferase Reporter Assay System (Promega, Madison, Wisconsin, USA) and the BioFix Lumi-10 (Macherey-Nagel, Düren, Germany) were used. The firefly luciferase activity was normalized to the Renilla luciferase activity to compensate for divergent transfection efficiencies.

HuH6 cells [2] = test: Cell proliferation assay (cell counting) in HuH6 cells; type: cell-based
Procedure: (§2) Cells were seeded and counted every 24 h for 5 days by using a Neubauer counting chamber.

HuH7 cells [3] = test: Cell proliferation assay (cell counting) in HuH7 cells; type: cell-based; settings: for Inhibitory effects on HCC proliferation as compared to inhibitor 10: 10 μM, 5 days; for Concentration sufficient to cease HCC cell proliferation: titration 10, 7.5, 5, 2.5 μM
Procedure: as §2

TRPM7 = TRPM7 (Mus musculus, UniProt Q923J1); test: Aequorin-based Ca2+ influx assay for TRPM7 inhibition; type: cell-based; settings: for Hill slopes for TRPM7 inhibition: Ca2+ influx assay, logistic equation fits, n = 3; for TRPM7 affinity compared to NS: relative to NS8593 (Figure 1C)
Procedure: HEK293T cells were transfected with 2 μg TRPM7 plasmid DNA and 0.1 μg pG5A plasmid DNA. After 24 h, the cells were washed with Mg^2+-free HEPES-buffered saline (HBS) containing 140 mM NaCl, 5.4 mM KCl, 0.5 mM CaCl2, 5 mM HEPES (pH 7.4), and 10 mM glucose and resuspended in Mg^2+-free HBS. After 30 min of incubation with 5 μM coelenterazine (Biaffin) at room temperature to reconstitute the aequorin, cells were washed two times by centrifugation at 2,000 rpm for 5 min (Heraeus Pico 17 microcentrifuge, Thermo Fisher Scientific). Then, they were resuspended in Mg^2+-free HBS and plated into 96-well plates. Luminescence was detected at room temperature using a CLARIOstar microplate reader (BMG Labtech). CaCl2-containing Mg^2+-free HBS was injected in the presence or absence of the inhibitors to increase the extracellular Ca^2+ concentration to 5 mM. Cell lysis with 0.1% (v/v) Triton X-100 in the Mg^2+-free HBS was used to terminate the experiment, and total bioluminescence was measured. The analysis of the bioluminescence rates (counts/s) was done in 1-s intervals and calibrated as [Ca^2+]i values using the following equation: p[Ca^2+]i=0,332588(−log(k))+5,5593 k represents the rate of aequorin consumption.
The following equation was used to determine the IC50 values of the inhibitors: E(c)=Emin+[…]/1+c^h/IC50^h
E(c) is the functional effect at the concentration c of the inhibitor, Emin is the minimal effect, Emax is the maximal effect, IC50 is the concentration of the inhibitor that produces the half-maximal effect, and h is the Hill coefficient. GraphPad Prism 8.4.0 was used for fitting.

SK3 channels = system: SK3 channels; set-up: method as in Sørensen et al. 22; settings: relative to NS8593 (Figure 1C); ref Sørensen et al. 22; cited from earlier work
MRTF-A = test: Immunofluorescence of MRTF-A nuclear localization; type: cell-based; settings: for MRTF-A nuclear localization reduced to: HuH7 and HuH6 cells (Figures 3B and S3A)
Procedure: Cells were fixated by a 10-min incubation with 4% paraformaldehyde in PBS. To permeabilize the cells, 0.2% Triton X-100 in PBS was used. Blocking was done with 1% BSA in PBS for 30 min at 37°C, followed by incubation with the respective primary antibodies (Table S4) for 1 h at room temperature and the secondary Alexa Fluor 488-coupled antibody (Invitrogen) (Table S5). The nucleus was stained with DAPI (Sigma-Aldrich). Images were taken using a fluorescence microscope (Nikon).

TGF-β1 = test: Immunoblotting for TGF-β1; type: cell-based; settings: HuH7 cells, 5 μM
Procedure: (§3) Proteins were denatured by boiling in Laemmli buffer at 95°C. According to their molecular weight, the proteins were separated by SDS-PAGE for 2 h at 100 V using the Bio-Rad Western Blot System (Bio-Rad, Hercules, California, USA) and the power supply peQPOWER 300 (Peqlab Biotechnology, Erlangen, Germany). The proteins were then transferred onto a polyvinylidene fluoride membrane (Merck, Darmstadt, Germany), which was activated in 100% methanol and equilibrated in a transfer buffer. The transfer was done at 350 mA for approximately 2 h. To avoid non-specific protein binding, the membrane was blocked with 5% milk powder in TBS-T. Afterward, the membrane was incubated over night at 4°C with the primary (Table S2) and the respective secondary antibodies for 1 h at room temperature (Table S3). Both was done with gentle shaking. The proteins were detected via chemiluminescence in a luminescent imager (ChemiDoc Imaging System, Bio-Rad).

TSPAN5 = test: Immunoblotting for TSPAN5; type: cell-based; settings: HuH7 cells
Procedure: as §3

HuH7 cells [4] = test: Matrigel invasion assay; type: cell-based; settings: 20 h
Procedure: The cell invasion assay was performed using Corning BioCoat Matrigel Invasion Chambers (Corning, Tewksbury, MA, USA) according to the manufacturer’s instructions. 2.5 × 10^4 cells per well were seeded and incubated for 20 h at 37°C. The invaded cells were fixed with methanol, stained with crystal violet, and counted under a light microscope (Carl Zeiss, Oberkochen, Germany).

MRTF-A-GFP = test: FLIP assay, nuclear export of MRTF-A-GFP; type: cell-based; settings: HuH7 cells, 5 μM, compared to control cells
Procedure: HuH7 cells were plated on 35-mm cell culture dishes and transfected with 200 ng MRTF-A-GFP and 800 ng pEF-FLAG plasmid DNA by using JetPrime (Polyplus, Illkirch, France). After treatment of the cells with the respective inhibitor, cells were imaged at 37°C, 5% CO2 in an Okolab Bold Line Cage Incubator using a Carl Zeiss LSM 700 confocal microscope with Axio Imager M2 and W Plan-Apochromat 63×/1.0 dipping objective. The software ZEN 2012 was used. Imaging parameters were as follows: pinhole diameter 1, resolution 256 × 256, bit depth 12, speed 7, line average 1, and zoom 2. The cytoplasm was bleached continuously starting after 3 scans with 2-s intervals using 100% laser power (488 nm/10 mW), and the nuclear fluorescence was recorded. The pre-bleach values were set to 1.

RhoA-TRPM7 interaction = target: T1, RhoA-TRPM7 interaction (Homo sapiens, UniProt Q96QT4); test: In situ proximity ligation assay for endogenous TRPM7 and RhoA; type: cell-based; settings: HuH7 cells, 6 h
T1 construct: proximity ligation assay (PLA) for endogenous TRPM7 and RhoA in HuH7 cells; endogenous in cells; host or cells: HuH7
Procedure: The DuoLink In situ Red Starter Kit Mouse/Rabbit (Sigma-Aldrich, Merck) was used according to the manufacturer’s protocol for DuoLink In Situ Solutions (Sigma-Aldrich, Merck). Anti-TRPM7/TRPM6 (Abcam, Cambridge, UK), anti-RhoA (NewEast Bioscience, Malvern, PA, USA), anti-MRTF-A (Santa Cruz Biotechnology, Santa Cruz, CA, USA), and anti-Filamin A (Thermo Fisher Scientific, Schwerte, Germany) antibodies were used as primary antibodies for incubation (Table S4). Images were recorded with a fluorescence microscope (Nikon, Düsseldorf, Germany).

HuH6 cells [5] = test: SA-β-Gal staining (cellular senescence) in HuH6 cells; type: cell-based
Procedure: as §1

T1 sequence (Q96QT4 whole entry): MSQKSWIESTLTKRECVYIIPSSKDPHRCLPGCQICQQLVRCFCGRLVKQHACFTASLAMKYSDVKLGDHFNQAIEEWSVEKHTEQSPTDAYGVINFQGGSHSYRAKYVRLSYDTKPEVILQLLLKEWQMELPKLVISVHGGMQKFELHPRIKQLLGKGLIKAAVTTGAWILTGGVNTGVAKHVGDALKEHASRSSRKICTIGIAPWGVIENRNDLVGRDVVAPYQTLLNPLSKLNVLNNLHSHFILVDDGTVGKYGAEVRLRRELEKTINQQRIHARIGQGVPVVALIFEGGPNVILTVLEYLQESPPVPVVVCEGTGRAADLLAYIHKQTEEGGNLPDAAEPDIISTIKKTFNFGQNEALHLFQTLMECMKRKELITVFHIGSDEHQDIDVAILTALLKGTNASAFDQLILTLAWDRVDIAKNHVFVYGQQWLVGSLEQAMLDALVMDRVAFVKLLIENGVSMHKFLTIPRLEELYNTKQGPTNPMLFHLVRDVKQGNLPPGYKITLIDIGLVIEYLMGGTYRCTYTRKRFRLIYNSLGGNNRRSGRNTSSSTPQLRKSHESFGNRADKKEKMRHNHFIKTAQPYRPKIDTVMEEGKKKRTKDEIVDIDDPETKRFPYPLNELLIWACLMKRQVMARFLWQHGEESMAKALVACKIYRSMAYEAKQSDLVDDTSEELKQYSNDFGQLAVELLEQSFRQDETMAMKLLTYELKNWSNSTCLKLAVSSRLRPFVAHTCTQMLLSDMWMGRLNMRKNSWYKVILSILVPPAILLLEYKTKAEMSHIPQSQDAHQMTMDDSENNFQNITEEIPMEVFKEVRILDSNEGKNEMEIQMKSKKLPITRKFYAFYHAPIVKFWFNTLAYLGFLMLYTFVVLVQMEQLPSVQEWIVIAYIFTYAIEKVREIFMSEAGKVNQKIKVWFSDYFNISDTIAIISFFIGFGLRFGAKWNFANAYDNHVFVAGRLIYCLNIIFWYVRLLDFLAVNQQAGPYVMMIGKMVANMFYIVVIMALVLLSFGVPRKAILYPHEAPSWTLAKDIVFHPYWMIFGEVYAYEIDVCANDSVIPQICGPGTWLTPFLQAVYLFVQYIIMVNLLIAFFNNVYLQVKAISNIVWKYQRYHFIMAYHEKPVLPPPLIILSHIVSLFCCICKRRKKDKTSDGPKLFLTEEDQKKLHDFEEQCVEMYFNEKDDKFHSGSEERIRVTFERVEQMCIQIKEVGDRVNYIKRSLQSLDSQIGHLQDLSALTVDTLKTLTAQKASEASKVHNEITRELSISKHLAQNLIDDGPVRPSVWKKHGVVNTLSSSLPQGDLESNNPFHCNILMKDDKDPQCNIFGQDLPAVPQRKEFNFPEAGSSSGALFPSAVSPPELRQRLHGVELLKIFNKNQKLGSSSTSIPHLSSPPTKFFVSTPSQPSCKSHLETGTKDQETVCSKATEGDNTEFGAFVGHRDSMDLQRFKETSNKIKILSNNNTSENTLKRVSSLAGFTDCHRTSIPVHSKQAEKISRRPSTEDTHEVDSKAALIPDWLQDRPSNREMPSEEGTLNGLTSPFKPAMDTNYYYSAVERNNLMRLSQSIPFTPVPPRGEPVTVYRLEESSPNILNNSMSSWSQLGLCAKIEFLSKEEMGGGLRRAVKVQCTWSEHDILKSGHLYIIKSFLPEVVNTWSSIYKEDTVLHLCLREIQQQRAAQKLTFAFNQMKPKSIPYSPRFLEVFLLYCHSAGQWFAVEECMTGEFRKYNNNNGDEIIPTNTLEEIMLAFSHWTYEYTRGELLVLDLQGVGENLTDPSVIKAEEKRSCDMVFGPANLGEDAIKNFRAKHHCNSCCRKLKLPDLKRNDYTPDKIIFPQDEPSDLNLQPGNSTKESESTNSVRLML
Chain of TRPM7 (Q923J1 whole entry): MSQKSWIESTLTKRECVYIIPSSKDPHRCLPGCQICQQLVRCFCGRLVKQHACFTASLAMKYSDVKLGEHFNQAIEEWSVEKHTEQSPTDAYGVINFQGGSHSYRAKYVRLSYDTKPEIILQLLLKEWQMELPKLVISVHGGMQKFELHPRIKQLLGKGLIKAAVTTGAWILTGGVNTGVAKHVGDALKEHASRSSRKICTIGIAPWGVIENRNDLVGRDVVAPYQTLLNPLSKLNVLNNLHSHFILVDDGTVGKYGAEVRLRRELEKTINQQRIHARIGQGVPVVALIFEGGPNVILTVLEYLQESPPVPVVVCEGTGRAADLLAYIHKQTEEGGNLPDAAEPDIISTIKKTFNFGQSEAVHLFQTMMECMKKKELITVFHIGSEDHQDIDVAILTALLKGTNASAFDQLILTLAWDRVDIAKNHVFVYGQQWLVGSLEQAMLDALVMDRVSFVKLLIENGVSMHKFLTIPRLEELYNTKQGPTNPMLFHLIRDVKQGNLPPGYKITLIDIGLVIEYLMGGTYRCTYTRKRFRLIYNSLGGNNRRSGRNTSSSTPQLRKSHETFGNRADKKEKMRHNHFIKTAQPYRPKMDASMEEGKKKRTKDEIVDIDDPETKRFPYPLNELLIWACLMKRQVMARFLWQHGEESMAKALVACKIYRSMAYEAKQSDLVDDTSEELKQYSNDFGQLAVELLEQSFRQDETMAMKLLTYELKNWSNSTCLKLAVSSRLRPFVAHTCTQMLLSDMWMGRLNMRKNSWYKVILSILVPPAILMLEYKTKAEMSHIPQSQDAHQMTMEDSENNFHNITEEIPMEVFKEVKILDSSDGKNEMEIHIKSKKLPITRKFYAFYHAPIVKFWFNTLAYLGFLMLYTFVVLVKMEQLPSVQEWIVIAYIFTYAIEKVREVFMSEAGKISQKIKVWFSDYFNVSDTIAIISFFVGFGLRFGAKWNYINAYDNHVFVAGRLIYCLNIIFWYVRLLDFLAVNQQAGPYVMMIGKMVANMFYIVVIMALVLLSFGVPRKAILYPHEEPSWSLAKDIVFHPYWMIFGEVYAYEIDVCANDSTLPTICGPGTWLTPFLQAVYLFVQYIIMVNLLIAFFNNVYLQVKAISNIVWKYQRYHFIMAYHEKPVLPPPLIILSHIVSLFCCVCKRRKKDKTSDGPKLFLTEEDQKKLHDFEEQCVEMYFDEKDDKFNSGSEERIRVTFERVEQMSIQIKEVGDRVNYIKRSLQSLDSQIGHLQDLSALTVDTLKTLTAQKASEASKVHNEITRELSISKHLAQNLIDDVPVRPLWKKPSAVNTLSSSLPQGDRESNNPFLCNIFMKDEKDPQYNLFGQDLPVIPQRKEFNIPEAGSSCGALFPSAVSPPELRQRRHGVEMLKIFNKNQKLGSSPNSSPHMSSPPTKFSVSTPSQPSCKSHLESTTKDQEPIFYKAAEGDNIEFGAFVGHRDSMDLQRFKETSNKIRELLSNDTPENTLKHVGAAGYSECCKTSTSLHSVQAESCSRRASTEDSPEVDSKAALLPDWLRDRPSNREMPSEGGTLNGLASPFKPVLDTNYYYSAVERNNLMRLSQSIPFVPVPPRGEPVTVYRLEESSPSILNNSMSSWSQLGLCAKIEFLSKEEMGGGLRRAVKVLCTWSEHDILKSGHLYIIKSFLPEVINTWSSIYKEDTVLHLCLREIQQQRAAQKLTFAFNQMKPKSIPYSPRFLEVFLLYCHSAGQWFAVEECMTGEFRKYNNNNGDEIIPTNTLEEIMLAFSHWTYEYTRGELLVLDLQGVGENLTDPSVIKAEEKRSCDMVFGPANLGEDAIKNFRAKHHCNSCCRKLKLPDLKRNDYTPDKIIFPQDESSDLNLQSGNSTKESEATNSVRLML

Fc1cccc(-c2cccc(Nc3nc4ccccc4[nH]3)c2)c1 [compound 16]
Concentration that significantly increases SA-β-Gal-positive cells (senescence induction) (HuH7 cells [1]): 2.5 µM
Concentration at which SRF activity is significantly reduced (SRF): 2.5 µM
Effect on cell proliferation (HuH6 cells [2]; 10 µM (Figure S5A)): proliferation arrest
Effect on cell proliferation (HuH7 cells [3]; 10 μM (Figure 6C)): proliferation arrest
Inhibitory effects on HCC proliferation as compared to inhibitor 10 (HuH7 cells [3]): significantly improved
Concentration sufficient to cease HCC cell proliferation (HuH7 cells [3]): 2.5 µM

c1ccc2c(c1)CCCC2Nc1nc2ccccc2[nH]1 (stereo not drawn) [NS8593, reference compound]
Hill slopes for TRPM7 inhibition (TRPM7): -1.432

COc1ccc2c(c1)C(Nc1nc3ccccc3[nH]1)CCC2 (stereo not drawn) [compound 3]
Hill slopes for TRPM7 inhibition (TRPM7): -1.224
TRPM7 affinity compared to NS (TRPM7): <NS
SK3 affinity compared to NS (SK3 channels): =NS

c1ccc2[nH]c(NC3CCCc4ccncc43)nc2c1 (stereo not drawn) [compound 7]
Effect on cell proliferation (HuH6 cells [2]; 30 µM NS8593, 2, 3, 7, 8, 10 µM 4, 5, 6, 5 days): decreased cell proliferation only marginally
Hill slopes for TRPM7 inhibition (TRPM7): -0.9579
TRPM7 affinity compared to NS (TRPM7): <NS
SK3 affinity compared to NS (SK3 channels): <NS
Effect on cell proliferation (HuH7 cells [3]; 30 μM NS, rNS, 2, 3, 7, 8, 10 μM 4, 5, 6, 5 days): decreased cell proliferation only marginally

c1ccc(-c2cccc(Nc3nc4ccccc4[nH]3)c2)cc1 [compound 10]
Localization of endogenous MRTF-A (MRTF-A; HuH7 cells, 5 μM, 18 h): cytoplasmic
SRF activity decreased to (SRF; 10 μM): 25%

Clc1cccc2c1CCCC2Nc1nc2ccccc2[nH]1 (stereo not drawn) [compound 5]
TGF-β1 expression (protein level) (TGF-β1): almost completely abolished
MRTF-A nuclear localization reduced to (MRTF-A; 5 μM): 12%
Concentration that significantly increases SA-β-Gal-positive cells (senescence induction) (HuH7 cells [1]): 5 µM
Fold lower concentration than NS8593 for inducing OIS (HuH7 cells [1]; compared with NS8593): 6 fold
TSPAN5 expression (protein level) (TSPAN5; 5 μM): almost completely abolished
Reduction in SRF activity (SRF): 60%
SRF activity (5×SRE-luciferase) (SRF): strong decrease
Penetration of HuH7 cells into Matrigel (HuH7 cells [4]; 5 μM): strongly impaired
Hill slopes for TRPM7 inhibition (TRPM7): -1.448
TRPM7 affinity compared to NS (TRPM7): >NS
MRTF-A-GFP fluorescence remaining in the nucleus after 80 s of bleaching (MRTF-A-GFP): less MRTF-A-GFP fluorescence remaining in the nucleus
SK3 affinity compared to NS (SK3 channels): =NS
RhoA-TRPM7 interaction (PLA) (RhoA-TRPM7 interaction; 5 μM): inhibited RhoA-TRPM7 interaction
Concentration at which HuH7 cell growth is already significantly reduced (HuH7 cells [3]; titration 2.5, 5, 7.5, 10 μM): 2.5 µM
Concentration that significantly increases SA-β-Gal-positive cells (senescence induction) (HuH6 cells [5]): 5 µM

c1ccc2c(c1)CCCC2Nc1nc2ccccc2[nH]1 (stereo not drawn) [compound 1]
inhibition at 30 µM (MRTF-A; Homo sapiens, Huh-7, HuH7 cells, 30 μM (Figure 3B)): 50%
Concentration that significantly increases SA-β-Gal-positive cells (senescence induction) (HuH7 cells [1]): 20 µM
SRF activity (5×SRE-luciferase) (SRF): strong decrease
Penetration of HuH7 cells into Matrigel (HuH7 cells [4]; 30 μM): strongly impaired
Hill slopes for TRPM7 inhibition (TRPM7; rNS): -1.370
TRPM7 affinity compared to NS (TRPM7): =NS
SK3 affinity compared to NS (SK3 channels): =NS
RhoA-TRPM7 interaction (PLA) (RhoA-TRPM7 interaction; 30 μM): inhibited RhoA-TRPM7 interaction

Clc1cc2c(cc1Cl)C(Nc1nc3ccccc3[nH]1)CCC2 (stereo not drawn) [compound 6]
Hill slopes for TRPM7 inhibition (TRPM7): -1.292
TRPM7 affinity compared to NS (TRPM7): =NS
SK3 affinity compared to NS (SK3 channels): >NS

c1ccc2[nH]c(NC3CCCc4sccc43)nc2c1 (stereo not drawn) [compound 8]
MRTF-A nuclear localization reduced to (MRTF-A; 30 μM): 12%
Concentration that significantly increases SA-β-Gal-positive cells (senescence induction) (HuH7 cells [1]): 20 µM
Concentration required to significantly reduce TSPAN5 expression (TSPAN5): 20 µM
Reduction in SRF activity (SRF): 30%
SRF activity (5×SRE-luciferase) (SRF): strong decrease
Penetration of HuH7 cells into Matrigel (HuH7 cells [4]; 30 μM): strongly impaired
Hill slopes for TRPM7 inhibition (TRPM7): -1.210
TRPM7 affinity compared to NS (TRPM7): <NS
SK3 affinity compared to NS (SK3 channels): <NS
RhoA-TRPM7 interaction (PLA) (RhoA-TRPM7 interaction; 30 μM): inhibited RhoA-TRPM7 interaction

Fc1ccc(-c2ccccc2Nc2nc3ccccc3[nH]2)cc1 [compound 13]
SRF reporter gene activity (SRF; 10 μM): remained largely unchanged

Cc1ccc2c(c1)C(Nc1nc3ccccc3[nH]1)CCC2 (stereo not drawn) [compound 4]
Hill slopes for TRPM7 inhibition (TRPM7): -1.123
TRPM7 affinity compared to NS (TRPM7): <NS
SK3 affinity compared to NS (SK3 channels): >NS

CC(C)c1ccc(-c2cccc(Nc3nc4ccccc4[nH]3)c2)cc1 [compound 14]
Concentration at which SRF activity is significantly reduced (SRF): 2.5 µM
Effect on cell proliferation (HuH6 cells [2]; 10 µM (Figure S5A)): proliferation arrest
Effect on cell proliferation (HuH7 cells [3]; 10 μM (Figure 6C)): proliferation arrest
Inhibitory effects on HCC proliferation as compared to inhibitor 10 (HuH7 cells [3]): significantly improved
Concentration sufficient to cease HCC cell proliferation (HuH7 cells [3]): 2.5 µM

Fc1ccc2c(c1)C(Nc1nc3ccccc3[nH]1)CCC2 (stereo not drawn) [compound 2]
Hill slopes for TRPM7 inhibition (TRPM7): -1.165
TRPM7 affinity compared to NS (TRPM7): <NS
SK3 affinity compared to NS (SK3 channels): >NS

c1ccc(-c2ccccc2Nc2nc3ccccc3[nH]2)cc1 [compound 9]
SRF reporter gene activity (SRF; 10 μM): remained largely unchanged
